# Patent US9463197B2, “Method for treating abnormal polyglutamine-mediated disease” (NATIONAL TAIWAN NORMAL UNIVERSITY, priority 2013, dated 2016)
# Assays:
# [1] = system: 293 ATXN3/Q75-GFP cells; experiment: ATXN3/Q75 aggregation assay (high content analysis); type: cell-based; conditions: at 100 nM; doxycycline and oxaliplatin 6 days; positive control
# Description: 293 ATXN3/Q75-GFP cells were plated into 96-well (2×10^4/well) dishes, grown for 24 hr and treated with different concentrations of the trehalose or analogs (100 nM˜100 μM) and suberoylanilide hydroxamic acid (SAHA, Cayman Chemical) for 8 hr. Then, doxycycline (10 μg/mL, BD) was added to the medium in each well to induce ATXN3/Q75-GFP expression for 6 days. Oxaliplatin (5 μM, Sigma) was also added to increase aggregate accumulation through inhibition of cell division. Then, cells were stained with Hoechst 33342 (0.1 μg/mL, Sigma) and aggregation percentage was assessed by high content analysis (HCA) system (ImageXpressMICRO, Molecular Devices), with excitation/emission wavelengths at 482/536 (EGFP).
# In the present example, the influences of the trehalose and analogs and HDAC inhibitor SAHA in the ATXN3/Q75-GFP cells were respectively examined. After 6 days of the treatment of doxycycline and oxaliplatin, the fluorescence microscopy images were observed, and aggregation percentage of ATXN3/Q75-GFP cells was assessed by high-content analysis system. The result was shown in FIG. 3, as a positive control, HDAC inhibitor SAHA reduced the ATXN3/Q75 aggregation to 85% (at 100 nM) as compared to untreated cells (100%).
# [2] = target: T1, porcine kidney trehalase (Sus scrofa, UniProt I3LIR5); experiment: Inhibition of analogs against trehalase activity (glucose from trehalose, HPLC); type: biochemical; conditions: preincubated 30 min at 37°C
# T1 sequence (I3LIR5 24-583): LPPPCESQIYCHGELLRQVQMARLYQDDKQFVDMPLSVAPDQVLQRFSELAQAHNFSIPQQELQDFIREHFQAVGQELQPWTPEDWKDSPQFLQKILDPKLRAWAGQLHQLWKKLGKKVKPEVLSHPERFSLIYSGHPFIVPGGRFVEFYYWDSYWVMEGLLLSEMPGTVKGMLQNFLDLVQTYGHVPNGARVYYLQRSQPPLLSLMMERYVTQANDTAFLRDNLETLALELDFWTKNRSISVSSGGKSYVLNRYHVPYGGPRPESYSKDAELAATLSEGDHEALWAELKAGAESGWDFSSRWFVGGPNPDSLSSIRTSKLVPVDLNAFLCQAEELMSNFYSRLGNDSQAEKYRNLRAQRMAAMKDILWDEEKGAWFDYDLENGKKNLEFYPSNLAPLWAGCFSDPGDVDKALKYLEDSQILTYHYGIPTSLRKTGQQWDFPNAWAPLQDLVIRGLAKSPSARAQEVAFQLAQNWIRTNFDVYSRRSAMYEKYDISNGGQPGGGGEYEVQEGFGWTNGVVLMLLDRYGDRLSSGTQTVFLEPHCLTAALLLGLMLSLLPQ
# Description: Hydrolysis of trehalose and analogs was tested using porcine kidney trehalase (Sigma-Aldrich, T8778). The standard reaction was performed by adding 0.001 unit of trehalase into 50 μl reaction solution containing 135 mM citric acid (pH 5.7) and 28 mM trehalose or trehalose analogs. […] The standard reaction was performed by adding 0.001 unit of trehalase into 50 μl reaction solution containing 135 mM citric acid (pH 5.7) and 44.8 mM α-D-lactulose, 44.8 mM α-D-melibiose, 0.2 μM validamycin A, or 0.2 μM validoxylamine A. Trehalase was incubated with analog for 30 min at 37° C., and the reaction was then started by addition of trehalose. After incubation at 37° C. for 2 hr, the reaction was terminated by heating the mixture in boiling water for 15 min. The activity of trehalase was assayed by measuring the amount of glucose produced from trehalose. The amount of carbohydrates after each enzymatic reaction was measured using a high-performance liquid chromatography (HPLC) system (Schambeck SFD 2100) equipped with an refractive index (RI) detector (SFD, RI 2000) at a flow rate of 1 ml/min. A carbohydrate analysis column (Shodex SUGAR SZ5532, 6.0 mm ID×150 mm L) equilibrated with 75% acetonitrile, 24% Milli-Q water, and 1% formic acid was used. The RI detector and column oven temperature were set to 40 and 60° C., respectively.
# Hydrolysis of trehalose, lactulose and melibiose (28 mM) was tested using porcine kidney trehalase (1 mU).
SMILES,Inhibition of trehalase activity (glucose generated from trehalose) ([2]; 44.8 mM analog),Inhibition of trehalase activity (glucose generated from trehalose) ([2]; 0.2 μM inhibitor),further results
"O=C(CCCCCCC(=O)Nc1ccccc1)NO [SAHA, suberoylanilide hydroxamic acid]",,,ATXN3/Q75 aggregation as compared to untreated cells (100%) [1]: 85%
"OC[C@H]1O[C@@H](O[C@@H]2[C@@H](CO)O[C@](O)(CO)[C@H]2O)[C@H](O)[C@@H](O)[C@H]1O [lactulose, α-D-lactulose]",did not inhibit the trehalase activity,,
"OC[C@H]1O[C@H](OC[C@H]2O[C@H](O)[C@H](O)[C@@H](O)[C@@H]2O)[C@H](O)[C@@H](O)[C@H]1O [melibiose, D-(+)-melibiose]",did not inhibit the trehalase activity,,
OCC1=C[C@@H](N[C@H]2C[C@H](CO)[C@@H](O[C@H]3O[C@@H](CO)[C@H](O)[C@@H](O)[C@@H]3O)[C@H](O)[C@H]2O)[C@H](O)[C@@H](O)[C@@H]1O [validamycin A],,can inhibit the trehalase activity,
OCC1=C[C@H](N[C@H]2C[C@H](CO)[C@@H](O)[C@H](O)[C@H]2O)[C@H](O)[C@@H](O)[C@@H]1O [validoxylamine A],,can inhibit the trehalase activity,
